System: acetylcholine receptors in the NMJ
Type: cell-based, human

α-bungarotoxin [BTX]
average number of spontaneous contractions after treatment: 0.17±0.17 | average score (corrected fraction of effective light pulses), after treatment: 0.01±0.01 | light-triggered and spontaneous contractions: completely stopped
